Data taken from ChEMBL document CHEMBL2016490, “Sinularioside, a triacetylated glycolipid from the Indonesian soft coral Sinularia sp., is an inhibitor of NO release” (2012).

Key:
Assay type in all cases: functional
Conditions in all cases: J774, 24 h
J774 [1] = assay: Antiinflammatory activity in mouse J774 cells assessed as inhibition of LPS-induced NO production at 10 uM after 24 hrs by Griess method
J774 [2] = assay: Antiinflammatory activity in mouse J774 cells assessed as inhibition of LPS-induced NO production at 100 uM after 24 hrs by Griess method
J774 [3] = assay: Antiinflammatory activity in mouse J774 cells assessed as inhibition of LPS-induced NO production at 30 uM after 24 hrs by Griess method

CCCCCCCCCCCCCCO[C@H]1OC[C@@H](O[C@H]2OC[C@@H](O)[C@@H](OC(C)=O)[C@@H]2OC(C)=O)[C@@H](O)[C@@H]1OC(C)=O [SINULARIOSIDE] gave an inhibition at 10 µM (J774 [1]) of 6%, an inhibition at 100 µM (J774 [2]) of 92.3% and an inhibition at 30 µM (J774 [3]) of 58.2%.
